Results reported in the supplement of paper PMC8612539.
Values after ≈ are worked out from the molar mass of the structure shown.

How the values were obtained:
Mannheimia haemolytica = test: minimum inhibitory concentration (MIC)
Description: (§1)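 Broth microdilution MIC (Sensititre BOPO7F bovine plate, CLSI methods) of 19 antimicrobials against field isolates of P. multocida, M. haemolytica, H. somni (deep nasopharyngeal swabs) and E. coli, Enterococcus spp. (rectal swabs) from weaned dairy heifers. Incubation 16-24 h at 35 C. MIC is the lowest concentration preventing visible growth. Values with <= or > lie at the tested range limits. Trimethoprim-sulfamethoxazole is given as the trimethoprim component of a 1:19 mixture.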

Enterococcus spp. = test: minimum inhibitory concentration (MIC)
Description: as §1

CN(C)[C@@H]1C(O)=C(C(N)=O)C(=O)[C@@]2(O)C(O)=C3C(=O)c4c(O)cccc4[C@@](C)(O)[C@H]3C[C@@H]12 [Tetracycline]
minimum inhibitory concentration [µg/mL]
Conditions	Enterococcus spp.	Mannheimia haemolytica
isolate (source animal id): 2	1 (≈ 2.25 µM)	–
isolate (source animal id): 8	–	> 8
isolate (source animal id): 13	–	> 8
isolate (source animal id): 18	–	> 8
isolate (source animal id): 21	–	> 8
isolate (source animal id): 25	–	4 (≈ 9 µM)
isolate (source animal id): 27	–	8 (≈ 18 µM)
isolate (source animal id): 28	–	8 (≈ 18 µM)
isolate (source animal id): 30	–	> 8
isolate (source animal id): 31	–	> 8
isolate (source animal id): 32	–	> 8
isolate (source animal id): 34	–	8 (≈ 18 µM)
isolate (source animal id): 35	> 8	–
isolate (source animal id): 36	–	8 (≈ 18 µM)
isolate (source animal id): 37	–	8 (≈ 18 µM)
isolate (source animal id): 40	–	> 8
isolate (source animal id): 41	–	8 (≈ 18 µM)
isolate (source animal id): 42	> 8	–
isolate (source animal id): 43	–	> 8
isolate (source animal id): 44	> 8	–
isolate (source animal id): 46	–	8 (≈ 18 µM)
isolate (source animal id): 49	–	4 (≈ 9 µM)
isolate (source animal id): 50	–	8 (≈ 18 µM)
isolate (source animal id): 51	–	8 (≈ 18 µM)
isolate (source animal id): 52	–	> 8
isolate (source animal id): 53	–	> 8
isolate (source animal id): 55	–	> 8
isolate (source animal id): 56	–	> 8
isolate (source animal id): 57	–	> 8
isolate (source animal id): 79	> 8	–
isolate (source animal id): 88	1 (≈ 2.25 µM)	–
isolate (source animal id): 91	2 (≈ 4.5 µM)	–
isolate (source animal id): 92	≤ 0.5	–
isolate (source animal id): 100	–	> 8
isolate (source animal id): 103	–	4 (≈ 9 µM)
isolate (source animal id): 107	–	4 (≈ 9 µM)
isolate (source animal id): 108	–	> 8
isolate (source animal id): 111	1 (≈ 2.25 µM)	–
isolate (source animal id): 112	–	> 8
isolate (source animal id): 113	–	> 8
isolate (source animal id): 121	–	8 (≈ 18 µM)
isolate (source animal id): 122	> 8	4 (≈ 9 µM)
isolate (source animal id): 123	> 8	> 8
isolate (source animal id): 126	–	4 (≈ 9 µM)
isolate (source animal id): 133	> 8	> 8
isolate (source animal id): 135	–	> 8
isolate (source animal id): 138	–	4 (≈ 9 µM)
isolate (source animal id): 141	–	> 8
isolate (source animal id): 142	–	> 8
isolate (source animal id): 145	–	4 (≈ 9 µM)
isolate (source animal id): 149	–	≤ 0.5
isolate (source animal id): 151	–	≤ 0.5
isolate (source animal id): 152	–	4 (≈ 9 µM)
isolate (source animal id): 154	–	≤ 0.5
isolate (source animal id): 158	> 8	–
isolate (source animal id): 159	–	4 (≈ 9 µM)
isolate (source animal id): 162	–	4 (≈ 9 µM)
isolate (source animal id): 168	> 8	–
isolate (source animal id): 169	> 8	–
isolate (source animal id): 170	–	8 (≈ 18 µM)
isolate (source animal id): 171	≤ 0.5	≤ 0.5
isolate (source animal id): 172	–	8 (≈ 18 µM)
isolate (source animal id): 173	–	8 (≈ 18 µM)
isolate (source animal id): 175	> 8	–
isolate (source animal id): 177	> 8	–
isolate (source animal id): 179	–	4 (≈ 9 µM)
isolate (source animal id): 180	–	4 (≈ 9 µM)
isolate (source animal id): 181	> 8	–
isolate (source animal id): 182	> 8	–
isolate (source animal id): 183	> 8	4 (≈ 9 µM)
isolate (source animal id): 186	–	4 (≈ 9 µM)
isolate (source animal id): 187	> 8	4 (≈ 9 µM)
isolate (source animal id): 188	–	4 (≈ 9 µM)
isolate (source animal id): 190	> 8	≤ 0.5
isolate (source animal id): 191	–	8 (≈ 18 µM)
isolate (source animal id): 192	–	≤ 0.5
isolate (source animal id): 194	≤ 0.5	–
isolate (source animal id): 195	> 8	–
isolate (source animal id): 197	> 8	–
isolate (source animal id): 201	–	8 (≈ 18 µM)
isolate (source animal id): 202	–	4 (≈ 9 µM)
isolate (source animal id): 209	–	8 (≈ 18 µM)
isolate (source animal id): 211	> 8	≤ 0.5
isolate (source animal id): 214	> 8	–
isolate (source animal id): 220	–	8 (≈ 18 µM)
isolate (source animal id): 221	–	4 (≈ 9 µM)
isolate (source animal id): 222	> 8	–
isolate (source animal id): 223	≤ 0.5	4 (≈ 9 µM)
isolate (source animal id): 228	> 8	–
isolate (source animal id): 230	> 8	–
isolate (source animal id): 233	–	4 (≈ 9 µM)
isolate (source animal id): 235	> 8	–
isolate (source animal id): 236	≤ 0.5	–
isolate (source animal id): 237	–	≤ 0.5
isolate (source animal id): 239	≤ 0.5	–
isolate (source animal id): 241	> 8	8 (≈ 18 µM)
isolate (source animal id): 244	≤ 0.5	–
isolate (source animal id): 246	> 8	–
isolate (source animal id): 247	> 8	–
isolate (source animal id): 250	> 8	–
isolate (source animal id): 252	> 8	4 (≈ 9 µM)
isolate (source animal id): 253	–	> 8
isolate (source animal id): 259	–	8 (≈ 18 µM)
isolate (source animal id): 260	–	> 8
isolate (source animal id): 262	–	4 (≈ 9 µM)
isolate (source animal id): 268	1 (≈ 2.25 µM)	–
isolate (source animal id): 282	≤ 0.5	4 (≈ 9 µM)
isolate (source animal id): 285	≤ 0.5	–
isolate (source animal id): 287	–	8 (≈ 18 µM)
isolate (source animal id): 288	–	≤ 0.5
isolate (source animal id): 289	≤ 0.5	–
isolate (source animal id): 290	≤ 0.5	–
isolate (source animal id): 291	–	≤ 0.5
isolate (source animal id): 293	–	4 (≈ 9 µM)
isolate (source animal id): 296	≤ 0.5	–
isolate (source animal id): 298	> 8	> 8
isolate (source animal id): 299	–	> 8
isolate (source animal id): 300	–	≤ 0.5
isolate (source animal id): 301	≤ 0.5	–
isolate (source animal id): 302	–	> 8
isolate (source animal id): 304	–	> 8
isolate (source animal id): 306	–	≤ 0.5
isolate (source animal id): 308	–	≤ 0.5
isolate (source animal id): 309	–	≤ 0.5
isolate (source animal id): 310	> 8	–
isolate (source animal id): 313	–	4 (≈ 9 µM)
isolate (source animal id): 318	–	4 (≈ 9 µM)
isolate (source animal id): 320	> 8	≤ 0.5
isolate (source animal id): 321	–	4 (≈ 9 µM)
isolate (source animal id): 323	–	> 8
isolate (source animal id): 324	–	8 (≈ 18 µM)
isolate (source animal id): 326	–	4 (≈ 9 µM)
isolate (source animal id): 328	–	8 (≈ 18 µM)
isolate (source animal id): 329	–	4 (≈ 9 µM)
isolate (source animal id): 331	≤ 0.5	–
isolate (source animal id): 333	≤ 0.5	4 (≈ 9 µM)
isolate (source animal id): 335	–	4 (≈ 9 µM)
isolate (source animal id): 338	–	4 (≈ 9 µM)
isolate (source animal id): 341	> 8	–
